Experimental data: patent US9862713B2, “Substituted bicyclic heteroaryl compounds as RXR agonists” (CONNEXIOS LIFE SCIENCES PVT. LTD., priority 2014, dated 2018)

System: hRXR α, β, or γ
Assay: Transactivation assay (RARE-Luc dual luciferase reporter in HEK-293 cells), activity relative to LG268
Format: cell-based, human
Details: compound at 300 nM, 24 h; luciferase activity expressed relative to LG268
Protocol: HEK-293 cells (ATCC) were seeded one day prior to transfection. For assessing EC50 of activation of RXR isoforms 2 μg of hRXR α, β, or γ (OriGENE, USA) over-expressing vector, 1 μg of plasmid expressing firefly luciferase under RARE element (RARE-Luc) and 25 ng of renilla luciferase vector (QIAGEN, USA) were co-transfected using lipofectamine reagent. Post 24 h of transfection, cells were treated with different concentrations of RXR agonists (100 nM, 300 nM and 1 uM) for 24 h followed by estimation of luciferase activity using Dual Luciferase Reporter Assay System (Promega). Luciferase activity was normalized to that of renilla luciferase. The activities of the RXR compounds were expressed relative to LG268, a known RXR agonist.

| Structure (SMILES) | Activity at 300 nM |
| --- | --- |
| CC(C)CN(c1ccc(C(=O)O)cc1)c1nc2c(s1)C(C)(C)CC(=O)C2(C)C [Compound 53, 4-[(2-methylpropyl) (4,4,7,7-tetramethyl-5-oxo-4,5,6,7-tetrahydro-1,3-benzothiazol-2-yl)amino]benzoic acid] | ***** (>0.6) |
| COc1cc(N(CC(C)C)c2sc3c(c2C)C(C)(C)CCC3(C)C)ccc1C(=O)O [Compound 54, 2-methoxy-4-[(2-methylpropyl)(3,4,4,7,7-pentamethyl-4,5,6,7-tetrahydro-1-benzothiophen-2-yl)amino]benzoic acid] | *** (>0.4 and <0.5) |
| Cc1c(N(CC(C)C)c2ccc(C(=O)O)c(OCC3CC3)c2)sc2c1C(C)(C)CCC2(C)C [Compound 55, 2-(cyclopropylmethoxy)-4-[(2-methylpropyl) (3,4,4,7,7-pentamethyl-4,5,6,7-tetrahydro-1-benzothiophen-2-yl)amino]benzoic acid] | *** (>0.4 and <0.5) |
| C#CCOc1cc(N(CC(C)C)c2sc3c(c2C)C(C)(C)CCC3(C)C)ccc1C(=O)O [Compound 56, 4-[(2-methylpropyl) (3,4,4,7,7-pentamethyl-4,5,6,7-tetrahydro-1-benzothiophen-2-yl)amino]-2-(prop-2-yn-1-yloxy)benzoic acid] | *** (>0.4 and <0.5) |
| Cc1c(N(CC(C)C)c2ccc(C(=O)O)c(Oc3ccccc3)c2)sc2c1C(C)(C)CCC2(C)C [Compound 57, 4-[(2-methylpropyl) (3,4,4,7,7-pentamethyl-4,5,6,7-tetrahydro-1-benzothiophen-2-yl)amino]-2-phenoxybenzoic acid] | ***** (>0.6) |
| Cc1cc(N(CC(C)C)c2nc3c(s2)C(C)(C)CCC3(C)C)ccc1C(=O)O [Compound 58, 2-methyl-4-[(2-methylpropyl) (4,4,7,7-tetramethyl-4,5,6,7-tetrahydro-1,3-benzothiazol-2-yl)amino]benzoic acid] | *** (>0.4 and <0.5) |
| Cc1cc(N(CC2CC2)c2nc3c(s2)C(C)(C)CCC3(C)C)ccc1C(=O)O [Compound 59, 4-[(cyclopropylmethyl) (4,4,7,7-tetramethyl-4,5,6,7-tetrahydro-1,3-benzothiazol-2-yl)amino]-2-methylbenzoic acid] | ** (>0.3 and <0.4) |
| Cc1cc(C(=O)O)ccc1N(CC1CC1)c1nc2c(s1)C(C)(C)CCC2(C)C [Compound 60, 4-[(cyclopropylmethyl) (4,4,7,7-tetramethyl-4,5,6,7-tetrahydro-1,3-benzothiazol-2-yl)amino]-3-methylbenzoic acid] | ** (>0.3 and <0.4) |
| Cc1cc(C(=O)O)ccc1N(CC(C)C)c1nc2c(s1)C(C)(C)CCC2(C)C [Compound 61, 3-methyl-4-[(2-methylpropyl) (4,4,7,7-tetramethyl-4,5,6,7-tetrahydro-1,3-benzothiazol-2-yl)amino]benzoic acid] | **** (>0.5 to <0.6) |
| C=CCN(c1ccc(C(=O)O)cc1)c1nc2c(s1)C(C)(C)CCC2(C)C [Compound 62, 4-[prop-2-en-1-yl(4,4,7,7-tetramethyl-4,5,6,7-tetrahydro-1,3-benzothiazol-2-yl)amino]benzoic acid] | ***** (>0.6) |
| CC1(C)CCC(C)(C)c2sc(N(c3ccc(C(=O)O)cc3)c3ccc(C(=O)O)o3)nc21 [Compound 63, 5-[(4-carboxyphenyl) (4,4,7,7-tetramethyl-4,5,6,7-tetrahydro-1,3-benzothiazol-2-yl)amino]furan-2-carboxylic acid] | *** (>0.4 and <0.5) |
| CC(C)CN(c1ccc(C(=O)O)cn1)c1nc2c(s1)C(C)(C)CCC2(C)C [Compound 64, 6-[(2-methylpropyl) (4,4,7,7-tetramethyl-4,5,6,7-tetrahydro-1,3-benzothiazol-2-yl)amino]pyridine-3-carboxylic acid] | ***** (>0.6) |
| CCCN(c1ccc(C(=O)O)cn1)c1nc2c(s1)C(C)(C)CCC2(C)C [Compound 65, 6-[propyl(4,4,7,7-tetramethyl-4,5,6,7-tetrahydro-1,3-benzothiazol-2-yl)amino]pyridine-3-carboxylic acid] | ***** (>0.6) |
| CC1(C)CCC(C)(C)c2sc(N(Cc3ccccc3)c3ccc(C(=O)O)cn3)nc21 [Compound 66, 6-[benzyl(4,4,7,7-tetramethyl-4,5,6,7-tetrahydro-1,3-benzothiazol-2-yl)amino]pyridine-3-carboxylic acid] | ***** (>0.6) |
| CC(C)CN(c1ccc(C(=O)O)nc1)c1nc2c(s1)C(C)(C)CCC2(C)C [Compound 67, 5-[(2-methylpropyl) (4,4,7,7-tetramethyl-4,5,6,7-tetrahydro-1,3-benzothiazol-2-yl)amino]pyridine-2-carboxylic acid] | * (<0.3) |
| CC1(C)CCC(C)(C)c2sc(N(CC3CC3)c3ncc(C(=O)O)cc3Cl)nc21 [Compound 68] | * (<0.3) |
| CC(C)CN(c1nc2c(s1)C(C)(C)CCC2(C)C)c1ncc(C(=O)O)cc1Cl [Compound 69, 5-chloro-6-[(2-methylpropyl) (4,4,7,7-tetramethyl-4,5,6,7-tetrahydro-1,3-benzothiazol-2-yl)amino]pyridine-3-carboxylic acid] | * (<0.3) |
| CC1(C)CCC(C)(C)c2sc(N(CC3CC3)c3cc(Cl)c(C(=O)O)cn3)nc21 [Compound 70, 4-chloro-6-[(cyclopropylmethyl) (4,4,7,7-tetramethyl-4,5,6,7-tetrahydro-1,3-benzothiazol-2-yl)amino]pyridine-3-carboxylic acid] | ***** (>0.6) |
| COc1cc(C(=O)O)ccc1N(CC1CC1)c1nc2c(s1)C(C)(C)CCC2(C)C [Compound 71, 4-[(cyclopropylmethyl) (4,4,7,7-tetramethyl-4,5,6,7-tetrahydro-1,3-benzothiazol-2-yl)amino]-3-methoxybenzoic acid] | * (<0.3) |
| COc1cc(N(CC2CC2)c2nc3c(s2)C(C)(C)CCC3(C)C)ccc1C(=O)O [Compound 72] | * (<0.3) |
| COc1cc(N(CC(C)C)c2nc3c(s2)C(C)(C)CCC3(C)C)ccc1C(=O)O [Compound 73, 2-methoxy-4-[(2-methylpropyl) (4,4,7,7-tetramethyl-4,5,6,7-tetrahydro-1,3-benzothiazol-2-yl)amino]benzoic acid] | ** (>0.3 and <0.4) |
| Cc1c(N(CC(C)C)c2ccc(C(=O)O)c(N)c2)sc2c1C(C)(C)CCC2(C)C [Compound 79, 2-amino-4-[(2-methylpropyl) (3,4,4,7,7-pentamethyl-4,5,6,7-tetrahydro-1-benzothiophen-2-yl)amino]benzoic acid] | ***** (>0.6) |
| CCCS(=O)(=O)Nc1cc(N(CC(C)C)c2sc3c(c2C)C(C)(C)CCC3(C)C)ccc1C(=O)O [Compound 80, 4-[(2-methylpropyl) (3,4,4,7,7-pentamethyl-4,5,6,7-tetrahydro-1-benzothiophen-2-yl)amino]-2-[(propylsulfonyl)amino]benzoic acid] | *** (>0.4 and <0.5) |
| CCCN(c1ccc(C(=O)O)cn1)c1nc2c(s1)C(C)(C)C=CC2(C)C [Compound 81, 6-[propyl(4,4,7,7-tetramethyl-4,7-dihydro-1,3-benzothiazol-2-yl)amino]pyridine-3-carboxylic acid] | ***** (>0.6) |
